One assay has as its system fungi. Conditions: cited from earlier work.
A further assay deals with Bcl-2. Put plainly: Bcl-2 phosphorylation immunoblot in MCF-7 cells. Type of assay: cell-based, human. The text has this:
Attempts to determine the phosphorylation status of Bcl-2 in tsFT210 cells using two different antibodies were unsuccessful due to the antibodies' inability to detect mouse Bcl-2 or the lack of specificity. Therefore, phosphorylated and non-phosphorylated Bcl-2 was detected in lysates from human MCF-7 cells (American Type Culture Collection, Manassas, Va.) treated with microtubule perturbing agents. Equal amounts of protein were separated by electrophoresis on 15% SDS-PAGE followed by immunoblotting with an antihuman Bcl-2 antibody (sc-509, Santa Cruz Biotechnology). Positive antibody reactions were visualized using peroxidase-conjugated secondary antibodies (Jackson ImmunoResearch, West Grove, Pa.) and an enhanced chemiluminescence detection system (Renaissance, NEN, Boston, Mass.) according to manufacturer's instructions.
All known microtubule disrupting compounds cause hyperphosphorylation of the antiapoptotic protein Bcl-2 (Haldar S, Jena N and Croce CM (1995) Inactivation of bcl-2 by phospliorylation. Proc Natl Acad Sci USA 92:4507-4511 and Basu A and Haldar S (1998) Microtubule-damaging drugs trigger bcl2 phosphorylation-requirement of phosphorylation on both serine-70 and serine-87 residues of bcl2 protein. Intl J Oncol 13:659-664). Therefore, the phosphorylation status of Bcl-2 in cells treated with various compounds including SR-7 was examined and the results are illustrated in FIG. 29. Proteins from lysates of MCF-7 cells treated with 0.5 μM paclitaxel, 1 μM nocodozole, 1,μM vincristine and, 3 or 10 μM SR-7 were separated by electrophoresis on 15% SDS-PAGE followed by immunoblotting with an antibody to Bcl-2. The phosphorylated form of Bcl-2 (P) appeared as the upper bands and the underphosphorylated form (U) was the lower band.
A general note: Immunoblotting shows a protein as a band on a membrane.

Assay [1] concerns tsFT210 cells. Put plainly: Flow cytometry, G2/M arrest in tsFT210 cells. As to conditions: 6 hours. Type of assay: cell-based, mouse. On the procedure: Oncogene 18:6989-6996, Th′ng JP, Wright PS, Hamaguchi J, Lee MG, Norbury CJ, Nurse P and Bradbury EM (1990) The FT210 cell line is a mouse G2 phase mutant with a temperature-sensitive CDC2 gene product. Cell 63:313-324.). Cell proliferation was blocked at G2 phase by incubation at 39.4° C. for 17 h. The synchronized cells were then released by re-incubating at 32.0° C. and treated immediately with 0-10 μM SR-7, 1 μM nocodazole or 100 EM SC-ααδ9, respectively, to probe for G2/M arrest. […] The harvested cells were stained with a solution containing 50 μg/ml propidium iodide and 250 μg/ml RNase A. Flow cytometry analysis was conducted with a Becton Dickinson FACS Star (Franklin Lakes, N.J.). […] This G2/M retention at 4C is probably due to the extended cell cycle blockage at 39.4° C. (Osada H, Cui CB, Onose R and Hanaoka F (1997) Screening of cell cycle inhibitors from microbial metabolites by a bioassay using a mouse cdc2 mutant cell line, tsFT210. Bioorg Med Chem 5:193-203). […] SC-ααδ9 is an inhibitor of the Cdc25 family of phosphatases that controls cell cycle checkpoints (Rice RL, Rusnak JM, Yokokawa F, Yokokawa S, Messner DJ, Boynton AL, Wipf P and Lazo JS (1997) A targeted library of small molecule, tyrosine and dual specificity phosphatase inhibitors derived from a rational core design and random side chain variation. Biochemistry 36:15965-15974).
Background: In flow cytometry, cells or beads pass a laser one at a time.

For another assay, the system named is Cdk1. The assay is described as follows: Western blotting for Cdk1 phosphorylation status in tsFT210 cells. As to conditions: 6 hours. Format: cell-based, mouse. The method, then: tsFT210 cells were harvested using the same procedure for cell synchronizing and drug exposure as described above for the G2/M flow cytometric analysis. The protein lysates were analyzed by Western blotting for Cdk1 as described previously (Tamura K, Southwick EC, Kerns J, Rosi K, Carr BI, Wilcox C and Lazo JS (2000) Cdc25 inhibition and cell cycle arrest by a synthetic thioalkyl vitamin K analogue. Cancer Res 60:1317-1325.). The inventors used Cdk1 isolated from human MCF-7 cells to assay for in vitro inhibition of enzyme activity because of available antibodies and convenience. Asynchronous cells grown at 37° C. in 5% CO2 in DMEM containing 10% fetal bovine serum were treated with lysis buffer and harvested as previously described (Vogt A, Wang AS, Johnson CS, Fabisiak JP, Wipf P and Lazo JS (2000) In vivo antitumor activity and induction of insulin-like growth factor-1 resistant apoptosis by SC-ααδ9. J Pharmacol Exptl Therap 292:530-537.). Cdk1 kinase activity assay was performed as previously described (Yu L, Orlandi L, Wang P, Orr MS, Senderowicz AM, Sausville EA, Silvestrini R, Watanabe N, Piwnica-Worms H, O° Connor PM (1998) UCN-01 arogates G2 arrest through a Cdc2-dependent pathway that is associated with inactivation of the WeelHu kinase and activation of the Cdc25C phosphatase. J Biol Chem 273: 33455-33464.). […] Histone H1 was separated from other proteins by SDS-PAGE and analyzed for incorporation of radioactive phosphate with a Molecular Dynamics STORM 860 Phospholmager (Sunnyvale, CA).
The major controlling molecule for G2/M transition is the cyclin dependent kinase, Cdk1, whose cellular activity is tightly regulated by phosphorylation (Pines J (1999) Four-dimensional control of the cell cycle. Nature Cell Biol 1:E73-79., Hunter T and Pines J (1994) Cyclins and cancer II: cyclin D and CDK inhibitors come of age. Cell 79:573-582). […] The protein lysates were analyzed by Western blotting for Cdk1 content and phosphorylation status as described elsewhere herein. […]

For assay [2], the system named is tsFT210 cells. The assay is described as follows: Flow cytometry, G1 transition in tsFT210 cells. Format: cell-based, mouse. As to conditions: 100 μM, additional 6 hours.
Assay [3] deals with bovine brain tubulin. Put plainly: Inhibition of [3H]colchicine binding. As to conditions: Mean ± SEM, N = 9. The method, then: Using methods described previously (Verdier-Pinard P, Lai J-Y, Yoo H-D, Yu J, Marquez B, Nagle DG, Nambu M, White JD, Falck JR, Gerwick WH, Day BW and Hamel E (1998) Structure-activity analysis of the interaction of curacin A, the potent colchicine site antimitotic agent, with tubulin and effects of analogs on the growth of MCF-7 breast cancer cells. Mol Phannacol 53:62-76.). 5,μM [^3H]colchicine was incubated with either 5% DMSO vehicle or compound (5 or 50 μM) at 37° C. for 15 min with 1 μM tubulin in the presence of 1 M monosodium glutamate, 0.1 M glucose-1-phosphate, 1 mM MgCl2, 1 mM GTP and 0.5 mg/ml bovine serum albumin. The solutions were filtered through two stacks of DEAE-cellulose filters and the radioactivity in the filtrate was determined by liquid scintillation spectrometry. Each series of determinations included positive controls of 5 and 50 μM curacin A. The inventors found no evidence that SR-7 could bind to the colchicine site of tubulin. […] The inventors propose that SR-7 may act at another site such as the previously characterized vinca alkaloid site.

Assay [4] deals with bovine brain tubulin. The assay is described as follows: GTP-induced tubulin assembly (turbidity). Format: biochemical. On the procedure:
Tubulin without microtubule-associated proteins was isolated from fresh bovine brains (Hamel E and Lin CM (1984). Separation of active tubulin and microtubule-associated proteins by ultracentrifugation and isolation of a component causing the formation of microtubule bundles. Biochemistry 23:4173-4184). Inhibition of assembly reactions was carried out as described previously (Verdier-Pinard P, Lai J-Y, Yoo H-D, Yu J, Marquez B, Nagle DG, Nambu M, White JD, Falck JR, Gerwick WH, Day BW and Hamel E (1998) Structure-activity analysis of the interaction of curacin A, the potent colchicine site antimitotic agent, with tubulin and effects of analogs on the growth of MCF-7 breast cancer cells. Mol Pharmacol 53:62-76.).
The inventors examined the ability of SR-7 to alter tubulin polymerization or depolymerization in vitro. FIG. 28, Panel A. Compounds (predissolved in DMSO) were preincubated with tubulin containing monosodium glutamate at 30 ° C. for 15 min. Samples were cooled to 0 ° C. and GTP was added. Samples were placed in a temperature-controlled multi-cuvette holder of a spectrophotometer held at 0 ° C. Baselines were established and temperature was rapidly raised to 30 ° C. Turbidity development in the cuvettes was measured at 350 nm. FIG. 28, Panel B. Compounds were added to the tubulin plus monosodium glutamate mixture at 0 ° C., placed in the spectrophotometer and temperature was raised to 30 ° C. Addition of 0.4 mM GTP to isolated bovine brain tubulin produced robust polymerization that began to plateau approximately 20 min after microtubule assembly commenced (Panel A).

These results are taken from patent US6673937B2, “Syntheses and methods of use of new antimitotic agents” (The University of Pittsburgh, priority 2000, dated 2004).

Molecules are shown by their SMILES.

On to `Oc1ccc(O)c2c1[C@H](O)[C@@H]1O[C@@H]1C21Oc2cccc3cccc(c23)O1` [Palmarumycin C12], for which the antifungal activity entry in the assay with fungi was “high antifungal activity”.
Turning to `CC(=O)O[C@H]1C(=O)[C@@]2(C)[C@H]([C@H](OC(=O)c3ccccc3)[C@]3(O)C[C@H](OC(=O)[C@H](O)[C@@H](NC(=O)c4ccccc4)c4ccccc4)C(C)=C1C3(C)C)[C@]1(OC(C)=O)CO[C@@H]1C[C@@H]2O` [paclitaxel], in the assay on Bcl-2 (0.5 μM), the Bcl-2 phosphorylation result is listed as “caused prominent phosphorylation of Bcl-2”.
On to `COC(=O)Nc1nc2cc(C(=O)c3cccs3)ccc2[nH]1` [nocodazole], for which, in the assay with tsFT210 cells [1] (1 μM), the “G2/M cell cycle transition” value is reported as “blocked cell passage through G2/M”. The Bcl-2 phosphorylation entry in the assay with Bcl-2 (1 μM nocodozole) is reported as “caused prominent phosphorylation of Bcl-2”. In the assay with Cdk1 (1 μM), the Cdk1 phosphorylation status entry is on record as “no hyperphosphorylation of Cdk1 was seen”.
For the compound `O=C1CC[C@@H](O)[C@@H]2C1=C(O)C=CC21Oc2cccc3cccc(c23)O1` [Palmarumycin CP4], the antifungal activity result in the assay with fungi was “high antifungal activity”.
Regarding `O=C1c2c(O)ccc(O)c2C2(Oc3cccc4cccc(c34)O2)[C@@H]2O[C@H]12` [Palmarumycin C3], the antifungal activity result in the assay with fungi is “high antifungal activity”.
As to `O=C1C=CC(=O)[C@@]23O[C@@]12C1(Oc2cccc4cccc(c24)O1)[C@@H]1O[C@@H]1[C@@H]3O` [Palmarumycin C10], the antifungal activity result with fungi is recorded as “high antifungal activity”.
Consider `CCCCCCCCCC(=O)NC(CCC(=O)N(CCNC(=O)c1nc(-c2ccccc2)oc1-c1ccccc1)Cc1ccccc1)C(=O)O` (stereo not drawn) [SC-ααδ9, 4-(benzyl-(2-[ (2,5-diphenyl-oxazole-4-carbonyl)-amino]-ethyl)-carbamoyl)-2-decanoylamino butyric acid, reference compound], for which the “G2/M cell cycle transition” value in the assay with tsFT210 cells [1] (100 μM, Panel I) is “G2/M inhibition”. Further, the G1 transition entry with tsFT210 cells [2] was “caused a prominent G1 block”. The Cdk1 phosphorylation status result with Cdk1 (100 IM, lane 8) is “yielded a hyperphosphorylated Cdk1”.
Consider `C=CC[C@@H](CC/C(C)=C/C=C/CC/C=C\[C@@H]1CSC([C@@H]2C[C@@H]2C)=N1)OC` [curacin A], for which the “Percent inhibition of [3H]colchicine binding” value with bovine brain tubulin [3] (5 μM compound, 5 µM) is ~90%; in the assay with bovine brain tubulin [3] (5 μM compound, listed as Curacin A, 5 µM), 89.8 ± 0.6%; in the assay with bovine brain tubulin [3] (50 μM compound), 97.3 ± 3.1%. In addition, the “inhibition of GTP-induced tubulin assembly” value with bovine brain tubulin [4] (1 μM) is recorded as 50%; in the assay with bovine brain tubulin [4] (5 μM), “completely inhibited GTP-induced tubulin assembly”.
On to `CC[C@]1(O)C[C@H]2CN(CCc3c([nH]c4ccccc34)[C@@](C(=O)OC)(c3cc4c(cc3OC)N(C=O)[C@H]3[C@@](O)(C(=O)OC)[C@H](OC(C)=O)[C@]5(CC)C=CCN6CC[C@]43[C@@H]65)C2)C1` [vincristine], for which the Bcl-2 phosphorylation entry in the assay with Bcl-2 (1 μM vincristine) was “caused prominent phosphorylation of Bcl-2”.
